In US10450326B2, “Thiazolopyrimidinone compounds and preparation methods and use thereof” (PEKING UNIVERSITY, priority 2015, dated 2019):
“Also recorded” adds a separate entry of the source.

Assays:
[1] = target: T1, α7 nAChR (Homo sapiens, UniProt P36544); assay: α7 nAChR positive allosteric modulator activity assay, voltage clamp in Xenopus oocytes with 100 μM ACh; format: cell-based; settings: for activity at 10 µM: at 10 μM compound, current induced by 100 μM ACh, Xenopus oocytes expressing α7 nAChR, read-out: Max Mod (%, at 10 μM)
T1 construct: expressed in transfected cells; host or cells: Xenopus oocytes (cRNA injection)
Description: The experimental process was as follows:
(1) Xenopus oocytes were injected with cRNA encoding α7 nAChR in order to express α7 nAChR on the cell membrane successfully;
(2) 100 μM ACh alone was added, and the α7 nAChR characteristic current caused by it was recorded as a control;
(5) The oocytes were incubated for 1 min with 10 μM compound, then 10 µM compound and 100 μM ACh were added simultaneously and the current induced by ACh was recorded at this time;
(6) The differences between the two currents in terms of peak intensity and duration were compared, with the ratio of peak intensity of the two currents representing the adjustment effect (Enhance Rate), in order to determine whether the compound had PAM activity, if the activity was good, then the subsequent test was carried out;
(7) Concentration gradient was set and the effects of compounds at different concentrations on the α7 nAChR characteristic current induced by 100 μM ACh were evaluated. Several determinations were carried out at the same concentration, and the results were presented in the form of “mean±standard deviation”;
(8) The EC50 (median maximum effect concentration) values and Max mod (the current amplitude caused by the maximal degree of adjustable endogenous agonist acetylcholine) values of the compounds and other activity data were obtained by Hill equation Inormalized=Emax/(1+(EC50/C)nH).
The amplitude of the peak current is only normalized by the amplitude produced by 100 μM ACh and different concentrations of LD486. […] It can be seen from FIG. 3 that the Hill equation is used to fit the dose-response curve and calculate the kinetic parameters.

[2] = target: T2, α7 nAChR (Rattus norvegicus, UniProt Q05941); assay: Radioisotope ligand binding assay, displacement of [3H]-Methyllycaconitine bound to rat brain cell membrane
T2 construct: from tissue; host or cells: rat brain (hippocampus) cell membranes

[3] = target: T3, α4β2 receptors (Homo sapiens, UniProt P17787+P43681); assay: Two-electrode voltage clamp in Xenopus oocytes, α4β2 receptor; format: cell-based; settings: 10 μM LD486, pre-stimulated 60 seconds, 10 μM ACh
T3 construct: expressed in transfected cells; host or cells: Xenopus oocytes
Description: (§1) FIGS. 4A and B show the response intensity curves of Xenopus oocytes stimulated by only […] Ach to α4β2 and α3β4 in the left panel, respectively.
(§2) FIGS. 4A and B show the response intensity curves of Xenopus oocytes stimulated by 10 μM ACh and […] LD486 to α4β2 and α3β4 in the right panel, respectively. Xenopus oocytes are pre-stimulated with 10 μM LD486 for 60 seconds.
(§3) Used as exogenous expression system, Xenopus oocytes are injected with different α subunits and β subunits at 1:1 ratio.

[4] = target: T4, α3β4 receptors (Homo sapiens, UniProt P30926+P32297); assay: Two-electrode voltage clamp in Xenopus oocytes, α3β4 receptor; format: cell-based; settings: 10 μM LD486, pre-stimulated 60 seconds, 10 μM ACh
T4 construct: expressed in transfected cells; host or cells: Xenopus oocytes
Description: as §1, §2, §3

[5] = target: T5, hERG (human ether-a-go-go related gene) channel (Homo sapiens, UniProt Q12809); assay: Automatic patch clamp Qplate-16 assay, hERG channel expressed on CHO cell lines; format: cell-based; settings: CHO cells
T5 construct: expressed in transfected cells; host or cells: CHO (Chinese hamster ovary) cell lines
From the text: In the absence of LD486 or cisapride or in the presence of LD486 or cisapride at different concentrations, drug-related hERG potassium channel inhibition can lead to ventricular delayed repolarization (long QT interval syndrome), which may lead to a current intensity of fatal arrhythmia such as torsades de pointes, and even sudden death.

[6] = potentiation of current induced by 100 μM ACh, Hill equation fit

T3 sequence (P43681 29-627 limits assumed): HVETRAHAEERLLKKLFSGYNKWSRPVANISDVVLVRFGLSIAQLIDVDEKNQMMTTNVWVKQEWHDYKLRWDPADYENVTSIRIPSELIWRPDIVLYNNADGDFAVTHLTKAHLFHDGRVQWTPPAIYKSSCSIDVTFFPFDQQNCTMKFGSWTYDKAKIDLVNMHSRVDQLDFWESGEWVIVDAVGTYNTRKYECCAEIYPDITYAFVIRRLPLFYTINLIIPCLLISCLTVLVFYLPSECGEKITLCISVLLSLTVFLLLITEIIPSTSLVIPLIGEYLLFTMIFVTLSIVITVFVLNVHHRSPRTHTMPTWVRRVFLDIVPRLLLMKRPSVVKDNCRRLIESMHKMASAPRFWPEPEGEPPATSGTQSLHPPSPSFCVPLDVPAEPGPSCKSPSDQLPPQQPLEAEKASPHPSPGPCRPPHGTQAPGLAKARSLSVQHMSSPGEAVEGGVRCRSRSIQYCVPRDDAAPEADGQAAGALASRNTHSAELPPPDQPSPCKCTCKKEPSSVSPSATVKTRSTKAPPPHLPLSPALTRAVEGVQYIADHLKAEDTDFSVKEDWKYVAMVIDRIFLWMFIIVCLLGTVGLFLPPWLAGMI
T3 sequence (P17787 26-502): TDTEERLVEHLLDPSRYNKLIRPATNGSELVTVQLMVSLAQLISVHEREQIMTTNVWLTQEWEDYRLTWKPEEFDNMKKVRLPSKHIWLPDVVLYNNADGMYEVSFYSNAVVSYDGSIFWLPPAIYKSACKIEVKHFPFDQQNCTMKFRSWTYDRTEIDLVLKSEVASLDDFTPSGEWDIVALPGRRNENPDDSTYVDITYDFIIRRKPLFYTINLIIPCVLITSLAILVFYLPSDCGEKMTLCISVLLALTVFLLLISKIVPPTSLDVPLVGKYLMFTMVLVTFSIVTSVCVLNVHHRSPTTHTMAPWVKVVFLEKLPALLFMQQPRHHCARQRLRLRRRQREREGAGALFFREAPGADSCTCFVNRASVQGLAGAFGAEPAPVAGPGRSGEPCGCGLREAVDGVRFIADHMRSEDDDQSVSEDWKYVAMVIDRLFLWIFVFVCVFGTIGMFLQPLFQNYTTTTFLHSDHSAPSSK
T4 sequence (P32297 32-505): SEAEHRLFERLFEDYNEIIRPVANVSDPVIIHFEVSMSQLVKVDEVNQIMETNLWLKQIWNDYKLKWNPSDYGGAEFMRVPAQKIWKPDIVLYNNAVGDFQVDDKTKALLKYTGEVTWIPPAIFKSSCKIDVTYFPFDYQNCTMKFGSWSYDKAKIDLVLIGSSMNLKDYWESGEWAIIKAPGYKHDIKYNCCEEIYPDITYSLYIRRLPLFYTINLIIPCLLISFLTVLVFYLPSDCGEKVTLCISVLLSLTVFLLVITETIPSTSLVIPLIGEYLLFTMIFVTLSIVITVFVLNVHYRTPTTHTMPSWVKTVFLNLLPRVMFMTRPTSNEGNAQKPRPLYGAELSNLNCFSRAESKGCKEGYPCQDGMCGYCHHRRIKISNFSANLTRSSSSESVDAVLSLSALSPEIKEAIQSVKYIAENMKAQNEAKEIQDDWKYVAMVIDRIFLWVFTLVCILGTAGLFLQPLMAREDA
T4 sequence (P30926 22-498): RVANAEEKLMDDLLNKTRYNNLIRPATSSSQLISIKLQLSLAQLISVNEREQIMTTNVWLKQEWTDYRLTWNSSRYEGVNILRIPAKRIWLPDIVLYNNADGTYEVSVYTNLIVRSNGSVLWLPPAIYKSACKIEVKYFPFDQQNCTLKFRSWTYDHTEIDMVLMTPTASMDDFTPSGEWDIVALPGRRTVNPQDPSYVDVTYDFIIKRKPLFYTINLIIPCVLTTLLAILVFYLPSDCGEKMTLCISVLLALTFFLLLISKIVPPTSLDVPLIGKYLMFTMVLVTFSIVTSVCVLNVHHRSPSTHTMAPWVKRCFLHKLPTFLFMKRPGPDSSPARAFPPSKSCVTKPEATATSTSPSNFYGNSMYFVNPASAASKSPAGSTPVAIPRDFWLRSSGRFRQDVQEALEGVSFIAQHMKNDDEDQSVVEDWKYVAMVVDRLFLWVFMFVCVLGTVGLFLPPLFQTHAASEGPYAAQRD
T2 sequence (Q05941 23-502): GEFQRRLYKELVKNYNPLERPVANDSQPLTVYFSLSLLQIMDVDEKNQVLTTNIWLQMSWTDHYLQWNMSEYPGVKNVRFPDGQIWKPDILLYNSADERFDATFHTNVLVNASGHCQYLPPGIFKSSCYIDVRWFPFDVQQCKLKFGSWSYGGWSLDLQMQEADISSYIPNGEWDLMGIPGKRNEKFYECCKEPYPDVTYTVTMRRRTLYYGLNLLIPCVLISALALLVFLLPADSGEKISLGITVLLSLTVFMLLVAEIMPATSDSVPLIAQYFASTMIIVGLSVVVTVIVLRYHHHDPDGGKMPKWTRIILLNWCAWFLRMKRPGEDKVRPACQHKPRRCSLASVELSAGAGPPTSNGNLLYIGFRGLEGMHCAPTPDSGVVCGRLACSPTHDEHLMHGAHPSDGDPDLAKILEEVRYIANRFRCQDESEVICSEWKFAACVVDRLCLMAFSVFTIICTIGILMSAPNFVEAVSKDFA
T5 sequence (Q12809 whole entry): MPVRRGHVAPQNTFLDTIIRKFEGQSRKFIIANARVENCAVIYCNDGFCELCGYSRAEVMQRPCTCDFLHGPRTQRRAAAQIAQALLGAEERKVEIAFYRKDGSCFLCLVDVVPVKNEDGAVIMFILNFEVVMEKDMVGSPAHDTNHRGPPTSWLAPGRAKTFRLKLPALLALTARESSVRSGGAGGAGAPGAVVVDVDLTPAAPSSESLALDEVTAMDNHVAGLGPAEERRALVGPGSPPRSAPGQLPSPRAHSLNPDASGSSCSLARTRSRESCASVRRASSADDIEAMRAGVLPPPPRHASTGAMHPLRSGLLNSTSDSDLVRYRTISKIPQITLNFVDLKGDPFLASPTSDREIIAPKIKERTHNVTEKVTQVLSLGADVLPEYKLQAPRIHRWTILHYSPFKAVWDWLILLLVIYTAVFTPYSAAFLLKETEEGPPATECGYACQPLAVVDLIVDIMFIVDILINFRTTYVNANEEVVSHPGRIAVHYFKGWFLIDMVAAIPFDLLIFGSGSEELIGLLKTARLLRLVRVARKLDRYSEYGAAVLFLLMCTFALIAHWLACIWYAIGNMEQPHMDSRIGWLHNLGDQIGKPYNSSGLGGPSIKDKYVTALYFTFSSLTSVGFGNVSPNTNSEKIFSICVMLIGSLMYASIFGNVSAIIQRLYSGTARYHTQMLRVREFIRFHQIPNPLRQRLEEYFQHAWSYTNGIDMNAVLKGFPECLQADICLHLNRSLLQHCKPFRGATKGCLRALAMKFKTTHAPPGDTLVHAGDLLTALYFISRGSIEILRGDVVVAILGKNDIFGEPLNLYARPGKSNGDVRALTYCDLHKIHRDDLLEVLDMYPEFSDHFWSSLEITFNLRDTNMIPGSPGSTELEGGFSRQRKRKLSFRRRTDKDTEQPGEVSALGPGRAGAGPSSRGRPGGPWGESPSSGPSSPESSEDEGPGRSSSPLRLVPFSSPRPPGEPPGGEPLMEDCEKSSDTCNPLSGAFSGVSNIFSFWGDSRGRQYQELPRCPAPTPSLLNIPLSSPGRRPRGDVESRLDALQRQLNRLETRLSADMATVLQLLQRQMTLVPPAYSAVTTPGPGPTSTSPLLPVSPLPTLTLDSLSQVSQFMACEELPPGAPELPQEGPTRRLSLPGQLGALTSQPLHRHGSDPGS
T1 sequence (P36544 23-502): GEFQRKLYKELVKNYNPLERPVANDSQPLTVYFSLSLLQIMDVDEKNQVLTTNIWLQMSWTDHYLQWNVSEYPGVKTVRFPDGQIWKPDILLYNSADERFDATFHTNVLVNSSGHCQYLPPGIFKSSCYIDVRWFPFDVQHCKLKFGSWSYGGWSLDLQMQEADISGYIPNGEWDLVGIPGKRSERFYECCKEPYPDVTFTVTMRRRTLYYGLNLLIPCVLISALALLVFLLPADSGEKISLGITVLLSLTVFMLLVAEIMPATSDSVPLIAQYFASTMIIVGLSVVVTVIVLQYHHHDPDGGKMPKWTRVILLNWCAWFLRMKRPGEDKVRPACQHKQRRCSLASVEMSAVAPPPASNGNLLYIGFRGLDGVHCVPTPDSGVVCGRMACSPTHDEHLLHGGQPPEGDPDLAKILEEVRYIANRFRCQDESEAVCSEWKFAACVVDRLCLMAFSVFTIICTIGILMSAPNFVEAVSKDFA

For `Cc1nc(Cl)cc(Nc2nc3ncn(-c4c(C)cccc4Cl)c(=O)c3s2)n1` [LD486, 2-((6-Chloro-2-methylpyrimidin-4-yl)amino)-6-(2-chloro-6-methylphenyl)thiazolo[4,5-d]pyrimidin-7(6H)-one], the “maximal degree of adjustable endogenous agonist ACh current amplitude” value ([1]; FIG. 3, Hill equation fit) was “about 3.2 times”, the Hill coefficient ([1]; FIG. 3, n=6) was 1.4±0.2 and the Emax ([1]; FIG. 3, normalized to 100 μM ACh, repeated 6 times) was 320%. For the same compound, the EC50 ([1]; FIG. 3 concentration response curve, 100 μM ACh, n=6) was 3.2 ± 0.3 µM, the “induction of α7 nAChR characteristic current by compound alone” value ([1]; LD486 0.1-10 μM alone, without ACh, FIG. 2) was “does not induce” and the activity at 10 µM [1] was 320%. For the same compound, the “current amplitude induced by 100 μM ACh compared with the control group” value ([1]; incubation 1 min, then same concentration of LD486 plus 100 μM ACh, FIG. 2) was “significantly increased”, the Ki ([1]; summary statement, read-out: Ki value as an α7nAChR PAM) was ~3 µM and the “effect on binding of [3H]-MLA to α7 nAChR” value ([2]; concentration increased to 10 μM, hippocampus of rats) was “does not affect; also recorded: not reduced”. The “effect on current of α4β2 receptors” value [3] was “did not increase; also recorded: no significant effect”, the “effect on current of α3β4 receptors” value [4] was “did not increase; also recorded: no significant effect” and the “inhibitory effect on the hERG channel” value [5] was “no inhibitory effect; also recorded: slight inhibitory effect”.
In the case of `Cc1cccc(Cl)c1-n1cnc2nc(Sc3ccc(F)cc3)sc2c1=O` [LYH150908, 6-(2-Chloro-6-methylphenyl)-2-((4-fluorophenyl)thio)thiazolo[4,5-d]pyrimidin-7(6H)-one], the activity at 10 µM [1] is reported as 200% and the EC50 [1, 6] is reported as 10 µM.
`COc1ccc(Sc2nc3ncn(-c4c(C)cccc4Cl)c(=O)c3s2)cc1` [LYH150909, 6-(2-Chloro-6-methylphenyl)-2-((4-methoxyphenyl)thio)thiazolo[4,5-d]pyrimidin-7(6H)-one] gave an activity at 10 µM [1] of 110%.
For `Cc1cccc(Cl)c1-n1cnc2nc(Sc3ccccc3)sc2c1=O` [LYH151120, 6-(2-Chloro-6-methylphenyl)-2-(phenylthio)thiazolo[4,5-d]pyrimidin-7(6H)-one], the activity at 10 µM [1] was 380% and the EC50 [1, 6] was 10 µM.
`Cc1cccc(Cl)c1-n1cnc2nc(Sc3cccc(F)c3)sc2c1=O` [LYH151215, 6-(2-Chloro-6-methylphenyl)-2-((3-fluorophenyl)thio)thiazolo[4,5-d]pyrimidin-7(6H)-one] gave an EC50 [1, 6] of 10 µM.
`O=C(N[C@H]1CN2CCC1CC2)c1ccc(Cl)cc1` [PNU-282987, reference compound] gave a Ki ([2]; displacement of [3H]-MLA, rat brain cell membrane, FIG. 1) of 0.0341 ± 0.0043 µM.
